Measured values from patent US20020169123A1, “Regulating apoptosis in TRAIL-resistant cancer cells, while protecting normal, non-cancerous cells” (THE TRUSTEES OF THE UNIVERSITY OF PENNSYLVANIA, priority 2001, published 2002).

What was measured:
[1] = tested on: TRAIL-sensitive SW480 colon cancer cells; assay: apoptosis-inducing activity of adenovirus-expressed TRAIL; format: cell-based, human; settings: z-VAD-FMK 20 μM added 1 hour after onset of virus infection
Description: (§1) To make an adenovirus expressing extra-cellular portion of TRAIL (amino acids (Aa) 95 to 281), pAdTRACK/CMV and pAdEasy systems were used as previously described (He et al., Proc. Natl. Acad. Sci. USA 95:2509-2514 (1998)). In short, the extra-cellular portion of TRAIL was amplified by PCR (polymerase chain reaction). The amplified fragment was fused directly to the signal peptide of a mouse Ig κ chain, which is secreted into the media from the cells. Then, an isoleucine zipper (ILZ) fragment was inserted between the signal peptide and TRAIL to induce self-trimerization (Harbury et al., Science 262:1401-1407 (1993)). The final resulting construct was cloned into pAdTRACK/CMV, and then a recombinant plasmid was generated in BJ5183 E. coli by co-transforming PmeI-digested TRAIL-cloned pAdTRACK/CMV and pAdEASY.
(§2) The recombinant plasmid was digested with PacI, and was used for transfection into […] 293 cells using Superfect (QIAGEN, Valencia, Calif.). Approximately five (5) days after transfection, when comet-like patches of the green cells appeared, the cells were harvested. The viruses were amplified and purified as previously described (El-Deiry et al., Cell 75:817-825 (1993)). The infectivity of the viruses was checked by the observation of green fluorescence using a fluorescence microscope. […]

[2] = tested on: all cells, including cancer cells; assay: protection from the killing effect of TRAIL by caspase inhibitors; format: cell-based; settings: stated without experimental detail
[3] = tested on: TRAIL-sensitive esophageal cancer cells; assay: active-caspase 3 assay, effect of z-LEHD-FMK on TRAIL-sensitive cancer cells; format: cell-based, human; settings: extent of apoptosis slightly reduced
Description: Next, to determine the effect of z-LEHD-FMK on TRAIL-sensitive esophageal cancer cells (i.e., could z-LEHD-FMK also protect TRAIL-sensitive esophageal cancer cells from apoptosis), an active-caspase 3 assay was performed, as described above in the assay shown in FIG. 4A.

[4] = tested on: EPC2-GFP and TRAIL-sensitive TE2 mixed culture; assay: active-caspase 3 assay in mixed culture; format: cell-based, human; settings: TRAIL 4 hours with z-LEHD-FMK
Description: Finally, to confirm the observation that there was preferential protection of z-LEHD-FMK on normal esophageal epithelial cells in TRAIL-mediated apoptosis, but no similar protection afforded to TRAIL-sensitive esophageal cancer cells, both EPC2-GFP (2×10^5 cells) and TRAIL-sensitive TE2 (5×10^5 cells) were grown as a mixed culture in a 6-well plate. The cells were treated with TRAIL for 4 hours in the presence, or absence, of z-LEHD-FMK. An active-caspase 3 assay was performed, and the two populations within the mixed-cells were distinguished by the presence (EPC2-GFP), or absence (TE2), of GFP. […] Experiments were done in duplicate (mean value±SD).

[5] = tested on: TRAIL-resistant HCE4, TE3, and TE5 cells; assay: active-caspase 3 assay, adriamycin plus TRAIL; format: cell-based, human; settings: z-LEHD-FMK 20 μM added 2 hours before TRAIL
Description: Cells were treated with TRAIL (50 ng/mL final concentration) and 1 μg/mL of anti-6× His (N-terrninal histidine antibody) for 4 hours or for 16 hours. The caspase inhibitor was used at a final concentration of 20 μM, and was added 2 hours prior to the addition of TRAIL. When the cells were treated with both cycloheximide (CHX) and TRAIL, CHX (10 μg/mL final concentration) was added 6 hours before the addition of TRAIL. In the case of adriamycin, cells were pre-treated with adriamycin (0.5 μM final concentration) for 16 hours before the addition of TRAIL.
(§3) For detecting apoptosis mediated by TRAIL, an active-caspase 3 assay was performed using Cytofix/Cytoperm kit (Pharmingen, San Diego, Calif.), as previously described (Kim et al., Int. J. Oncol. 18:241-247 (2001)). Briefly, using standard techniques, 5×10^5 cells were seeded into a 6 well plate, after which, the cells were treated with TRAIL cross-linked with anti-6× His antibody. […] After washing, the cells were probed with 0.125 μg/μl of Phycoerythrin (PE)-conjugated goat anti-rabbit secondary antibody (Ab) (CALTAG Laboratories, Burlingame, Calif.) for 20 minutes in the dark. The intensity of PE was analyzed by flow cytometry using a Beckman-Coulter Epics Elite analyzer.
Accordingly, adriamycin was tested to determine whether its combination with TRAIL could induce synergistic cell killing in TRAIL-resistant esophageal cancer cells. TRAIL-resistant HCE4, TE3, and TE5 cells were pre-treated with 0.5 μM adriamycin for 16 hours, followed by incubation for 4 hours in the presence of TRAIL. z-LEHD-FMK (20 μM final concentration) was added 2 hours before the addition of TRAIL. An active-caspase 3 assay was used to determine whether apoptosis occurred.
Next, z-LEHD-FMK was tested in the HCE4, TE3 and TE5 cells to determine the protective effect of z-LEHD-FMK, if any, on the synergistic cell death driven by the combination of adriamycin with TRAIL.

[6] = tested on: normal esophageal epithelial EPC2 cells; assay: effect of Ad-ILZ-TR derived TRAIL; format: cell-based; settings: EPC2 cells in the presence of z-LEHD-FMK
Description: as §1, §2

[7] = tested on: EPC2 normal esophageal epithelial cells
Description: Normal human primary epithelial cells (EPC2, provided by Dr. Anil Rustgi, University of Pennsylvania) and primary human foreskin keratinocytes (HFK, provided by Dr. John C. Ansel, Emory University), were grown in Keratinocyte-SFM medium (Gibco BRL, Rockville, Md.) containing bovine pituitary extract (40 μg/mL) and epidermal growth factor (1 ng/mL). The primary epithelial cells were used at passage 4 or 5.
The N-terminal histidine (His) tagged recombinant human TRAIL (rhTRAIL, Thr-95 to Gly-281) was obtained from R&D Systems (Minneapolis, Minn.). A mouse monoclonal anti-6× His antibody (R&D Systems) was used for cross-linking the rhTRAIL. […] Cells were treated with TRAIL (50 ng/mL final concentration) and 1 μg/mL of anti-6× His (N-terrninal histidine antibody) for 4 hours or for 16 hours. The caspase inhibitor was used at a final concentration of 20 μM, and was added 2 hours prior to the addition of TRAIL. […] In the case of adriamycin, cells were pre-treated with adriamycin (0.5 μM final concentration) for 16 hours before the addition of TRAIL.
as §3

normal human hepatocytes = settings: Ozoren et al., 2000; cited from earlier work

Substance	cleavage of caspase 3 and PARP in Ad-ILZ-TR infected cells with inhibitor [1]	protection from the killing effect of TRAIL [2]	effect of z-LEHD-FMK on TRAIL-mediated apoptosis [3]	TRAIL-mediated apoptosis in presence of z-LEHD-FMK, TE2 population ([4]; mixed culture with EPC2-GFP)	protection from TRAIL-mediated apoptosis, EPC2-GFP population ([4]; mixed culture with TE2)	effect of z-LEHD-FMK on cell death by adriamycin plus TRAIL ([5]; HCE4 cells)	effect of z-LEHD-FMK on cell death by adriamycin plus TRAIL ([5]; TE3 and TE5 cells)	protection from cell death by Ad-ILZ-TR derived TRAIL [6]	protection from cell killing by TRAIL plus adriamycin ([7]; EPC2 cells in the presence of z-LEHD-FMK)	protection from TRAIL-mediated apoptosis ([7]; EPC2 cells, TRAIL 50 ng/mL 4 hours, z-LEHD-FMK 20 μM added 2 hours before TRAIL)	rescue from TRAIL-mediated apoptosis (normal human hepatocytes)
z-VAD-FMK	no cleavage was observed	protect all cells, including cancer cells, from the killing effect of TRAIL									
z-LEHD-FMK (HELM PEPTIDE1{[O=C(OCc1ccccc1)[*:2]].L.E.H.D.[FC[*:1]]}$$$$V2.0; SMILES CC(C)C[C@H](NC(=O)OCc1ccccc1)C(=O)N[C@@H](CCC(=O)O)C(=O)N[C@@H](Cc1c[nH]cn1)C(=O)N[C@@H](CC(=O)O)C(=O)CF)			still underwent apoptosis	continued to undergo apoptosis	almost completely protected	still killed in a synergistic way	almost completely blocked cell death	completely protected from cell death	almost completely protected from cell killing	completely protected	could rescue normal human hepatocytes
